{"source": "paper PMC3504066", "about": "(PLoS ONE, 2012)", "key": {"EGFR kinase": {"molecular_target": "T1, EGFR kinase (Homo sapiens, UniProt P00533)", "T1 construct": "purchased Promega", "T1 sequence (P00533 25-1210)": "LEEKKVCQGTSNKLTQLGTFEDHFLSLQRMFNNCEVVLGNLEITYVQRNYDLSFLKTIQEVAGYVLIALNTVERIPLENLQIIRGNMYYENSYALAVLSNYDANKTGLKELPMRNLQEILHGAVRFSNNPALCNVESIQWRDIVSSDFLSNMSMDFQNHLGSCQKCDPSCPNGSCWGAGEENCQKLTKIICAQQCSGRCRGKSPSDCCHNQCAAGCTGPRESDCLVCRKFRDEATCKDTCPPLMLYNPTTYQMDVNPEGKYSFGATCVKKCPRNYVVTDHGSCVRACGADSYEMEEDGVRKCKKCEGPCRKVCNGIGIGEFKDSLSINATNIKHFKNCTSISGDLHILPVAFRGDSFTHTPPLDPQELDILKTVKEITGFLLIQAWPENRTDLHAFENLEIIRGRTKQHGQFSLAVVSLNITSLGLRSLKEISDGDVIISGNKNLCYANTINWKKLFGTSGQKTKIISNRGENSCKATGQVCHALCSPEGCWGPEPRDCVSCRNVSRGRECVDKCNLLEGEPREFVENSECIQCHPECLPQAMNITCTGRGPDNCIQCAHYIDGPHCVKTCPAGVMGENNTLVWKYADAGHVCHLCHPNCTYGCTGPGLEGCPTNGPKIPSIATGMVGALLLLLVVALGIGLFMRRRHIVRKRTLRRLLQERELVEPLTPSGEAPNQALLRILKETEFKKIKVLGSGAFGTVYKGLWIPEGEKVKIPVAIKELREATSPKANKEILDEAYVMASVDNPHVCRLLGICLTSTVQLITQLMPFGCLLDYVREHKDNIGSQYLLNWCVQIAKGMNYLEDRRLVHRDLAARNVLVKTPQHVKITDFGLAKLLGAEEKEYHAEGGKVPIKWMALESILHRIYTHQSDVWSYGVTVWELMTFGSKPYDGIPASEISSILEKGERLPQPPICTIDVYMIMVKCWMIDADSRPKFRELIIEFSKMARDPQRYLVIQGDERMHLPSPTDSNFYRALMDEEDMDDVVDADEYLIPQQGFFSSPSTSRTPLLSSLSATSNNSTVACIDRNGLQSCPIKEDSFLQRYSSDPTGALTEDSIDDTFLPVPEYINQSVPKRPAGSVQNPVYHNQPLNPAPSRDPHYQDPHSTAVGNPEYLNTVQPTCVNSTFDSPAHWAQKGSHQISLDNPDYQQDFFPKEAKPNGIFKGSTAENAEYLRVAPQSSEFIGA", "experiment": "In vitro EGFR kinase assay (ADP-Glo Kinase Assay Kit, EGFR Kinase Enzyme System)", "assay_type": "biochemical", "method": "In vitro kinase inhibitory ability was determined using the ADP-Glo™ Kinase Assay Kit and EGFR Kinase Enzyme System (Promega), following the manufacturer's instructions."}, "NCI-H1975 cells [1]": {"system": "NCI-H1975 cells", "experiment": "Cytotoxicity / cell proliferation (MTT assay) in NCI-H1975 cells", "assay_type": "cell-based", "conditions": "for IC50: Homo sapiens, NCI-H1975", "method": "(§1) Cell proliferation was determined using MTT assay. Cell viability was estimated by trypan blue dye exclusion. Externalization of phosphatidylserine was tested using an Annexin V/PI Apoptosis Detection kit (BD Biosciences, San Jose, CA) according to manufacturer's instruction."}, "NCI-H1975 cells [2]": {"system": "NCI-H1975 cells", "experiment": "NCI-H1975 xenograft model in nude mice", "assay_type": "in vivo", "conditions": "30 mg/kg/day oral, 3 weeks; for tumor growth: nude mice with subcutaneous NCI-H1975 tumors", "method": "All animal studies were conducted according to protocols approved by the Animal Ethics Committee of the Institute of Zoology, Chinese Academy of Sciences, with the approval ID of AEC2011030205. All mice used in this study were bred and maintained in a specific pathogen-free environment. NCI-H1975 cells (2.5×10^6) were injected subcutaneously into the right flank of nude mice. […]. Animals were sacrificed when tumors reached 2 cm or if the mice appeared moribund to prevent unnecessary morbidity to the mice. At the time of the animals' death, tumors were excised; cells were separated and lyzed for Western blotting using anti-Noxa antibody and anti-Actin antibodies. Noxa expression was then quantified by densitometry analysis and normalized against Actin expression.\nWe tested the in vivo anti-tumor efficacy of V1801. […]. Animals were euthanized when they were treated for 3 weeks and the tumor samples were isolated and imaged (Fig. 6c). Proteins were extracted from tumor samples and Western blot assay was conducted. […]"}, "Noxa": {"system": "Noxa", "experiment": "Noxa protein expression by Western blot in NCI-H1975 cells", "assay_type": "cell-based", "conditions": "3 to 4 µM for 24 h", "method": "(§2) Cells were suspended in lysis buffer (50 mM Tris-HCl (pH 7.4), 150 mM NaCl, 1% triton X-100, 1% sodium deoxycholate, 0.1% SDS, 1 mM Na3VO4, 1 mM NaF, 1 mM EDTA, 1 mM PMSF, complete protease inhibitor cocktail) and cleared by centrifugation to obtain whole-cell lysates. Equal amounts of samples were separated by SDS-PAGE, transferred to nitrocellulose and immunoblotted with antibody indicated."}, "NCI-H1975 cells [3]": {"system": "NCI-H1975 cells", "experiment": "Combination of V1801 and bortezomib in NCI-H1975 cells (MTT, combination index)", "assay_type": "cell-based", "conditions": "24 h", "method": "as §1, with “instruction. After staining with Hoechst 33258 at 10 µg/ml for 10 min, cell death was assessed by a fluorescence microscope (Leica).” for “instruction.”\nThe interaction between compounds was quantified by determining the combination index (CI) calculated by the Chou–Talalay equation [29], [30]. The general equation for the classic isobologram is given by: CI = (D)1/(Dx)1+(D)2/(Dx)2. Where Dx indicates the dose of one compound alone required to produce an effect, (D)1 and (D)2 are the doses of compounds 1 and 2, respectively, necessary to produce the same effect in combination. From this analysis, the combined effects of the two compounds can be summarized as follows: CI<1 indicates synergism; CI = 1 indicates additive effect; and CI>1 indicates antagonism."}, "NCI-H1975 cells [4]": {"system": "NCI-H1975 cells", "experiment": "Soft-agar colony formation (clonogenic) assay", "assay_type": "cell-based", "conditions": "3 µM for 12 h, colonies after 2 weeks; compared to gefitinib or vehicle control", "source_text": "To this end, trypsinized cells were suspended in RPMI 1640 medium containing 10% FBS and low-melting-point 0.3% agarose (Amresco, Solon, OH) and subsequently overlaid onto a solidified layer of RPMI 1640 medium containing 10% FBS and 0.6% agarose in 35 mm plate (5,000 cells/plate) in triplicate. After 2 weeks, the colonies were fixed in 90% ethanol and stained with 0.005% crystal violet (Sigma). The colony forming units with more than 100 cells were counted using a light microscope."}, "[5]": {"system": "phosphorylated EGFR (p-EGFR)", "experiment": "Western blot of phosphorylated EGFR in HCC827 cells", "assay_type": "cell-based", "conditions": "gefitinib-sensitive HCC827 cells, 12 h", "method": "as §2"}, "A549 cells [6]": {"system": "A549 cells", "experiment": "Apoptosis by Annexin V/PI staining and flow cytometry in A549 cells", "assay_type": "cell-based", "conditions": "24 h", "method": "as §1, with “instruction. After staining with Hoechst 33258 at 10 µg/ml for 10 min, cell death was assessed by a fluorescence microscope (Leica).” for “instruction.”"}, "[7]": {"system": "phosphorylated EGFR (p-EGFR)", "experiment": "Western blot of phosphorylated EGFR in NCI-H1975 cells", "assay_type": "cell-based", "conditions": "12 h", "method": "as §2"}, "NCI-H1975 cells [8]": {"system": "NCI-H1975 cells", "experiment": "Apoptosis by Annexin V/PI staining and flow cytometry in NCI-H1975 cells", "assay_type": "cell-based", "conditions": "24 h", "method": "as §1, with “instruction. After staining with Hoechst 33258 at 10 µg/ml for 10 min, cell death was assessed by a fluorescence microscope (Leica).” for “instruction.”"}, "A549 cells [9]": {"system": "A549 cells", "experiment": "Cell proliferation (MTT assay) in A549 cells", "assay_type": "cell-based", "conditions": "wild type EGFR-expressing A549, MTT assay, 48 h, dose-dependent", "method": "as §1, with “instruction. After staining with Hoechst 33258 at 10 µg/ml for 10 min, cell death was assessed by a fluorescence microscope (Leica).” for “instruction.”"}, "[10]": {"conditions": "L858R/T790M-EGFR harboring NSCLC cells"}}}
{"smiles": "COc1cc2c(Nc3cc(C(F)(F)F)ccc3Cl)ncnc2cc1OCCN1CCCCC1", "note": "[V1306]", "values": [{"measurement": "IC50", "setting": "EGFR kinase", "value": "> 10", "unit": "µM"}]}
{"smiles": "COc1cc2c(Nc3ccc4nc(C(F)(F)F)[nH]c4c3)ncnc2cc1OCCCN1CCCCC1", "note": "[V1804]", "values": [{"measurement": "IC50", "setting": "EGFR kinase", "value": 2, "unit": "µM"}, {"measurement": "IC50", "setting": "NCI-H1975 cells [1]; [10]", "value": "> 10", "unit": "µM"}]}
{"smiles": "COc1cc2c(Nc3cc(C(F)(F)F)ccc3Cl)ncnc2cc1OCCCN1CCOCC1", "note": "[V1305]", "values": [{"measurement": "IC50", "setting": "EGFR kinase", "value": "> 10", "unit": "µM"}]}
{"smiles": "COc1cc2ncnc(Nc3ccc(F)c(Cl)c3)c2cc1OCCCN1CCOCC1", "note": "[Gefitinib, N-(3-chloro-4-fluoro-phenyl)-7-methoxy-6-(3-morpholin-4-ylpropoxy) quinazolin-4-amine, reference compound]", "values": [{"measurement": "tumor growth", "setting": "NCI-H1975 cells [2]", "value": "does not show therapeutic benefit"}, {"measurement": "Noxa protein level", "setting": "Noxa", "value": "failed to up-regulate"}]}
{"smiles": "COc1cc2c(Nc3ccc4c(C(F)(F)F)cc(=O)oc4c3)ncnc2cc1OCCCN1CCCCC1", "note": "[V1803]", "values": [{"measurement": "IC50 NCI-H1975 cells", "setting": "NCI-H1975 cells [1]; [10]", "value": "Insoluble"}]}
{"smiles": "COc1cc2c(Nc3cc(C(F)(F)F)ccc3F)ncnc2cc1OCCCN1CCCCC1", "note": "[V1805]", "values": [{"measurement": "IC50", "setting": "EGFR kinase", "value": 0.12, "unit": "µM"}, {"measurement": "IC50", "setting": "NCI-H1975 cells [1]; [10]", "value": "> 10", "unit": "µM"}]}
{"smiles": "C=CCOc1cc2ncnc(Nc3cc(C(F)(F)F)ccc3Cl)c2cc1OC", "note": "[V1304]", "values": [{"measurement": "IC50", "setting": "EGFR kinase", "value": "> 10", "unit": "µM"}]}
{"smiles": "CCCCCCc1cn(CCCOc2cc3ncnc(Nc4cc(C(F)(F)F)ccc4Cl)c3cc2OC)nn1", "note": "[V1302]", "values": [{"measurement": "IC50", "setting": "EGFR kinase", "value": "> 10", "unit": "µM"}, {"measurement": "IC50", "setting": "NCI-H1975 cells [1]; [10]", "value": "> 10", "unit": "µM"}]}
{"smiles": "COc1cc2c(Nc3cc(C(F)(F)F)ccc3Cl)ncnc2cc1OCCCn1cnnn1", "note": "[V1303]", "values": [{"measurement": "IC50", "setting": "EGFR kinase", "value": "> 10", "unit": "µM"}, {"measurement": "IC50", "setting": "NCI-H1975 cells [1]; [10]", "value": "> 10", "unit": "µM"}]}
{"smiles": "CC(C)C[C@H](NC(=O)[C@H](Cc1ccccc1)NC(=O)c1cnccn1)B(O)O", "note": "[bortezomib, reference compound]", "values": [{"measurement": "enhancement of V1801-caused inhibition of cell proliferation", "setting": "NCI-H1975 cells [3]; bortezomib 10 to 15 nM with V1801 2 µM, MTT", "value": "significantly enhanced"}]}
{"smiles": "COc1cc2c(Nc3cc(C(F)(F)F)ccc3Cl)ncnc2cc1OCCCN1CCCCC1", "note": "[V1808]", "values": [{"measurement": "IC50", "setting": "EGFR kinase", "value": 2.67, "unit": "µM"}, {"measurement": "IC50", "setting": "NCI-H1975 cells [1]; [10]", "value": 18.2, "unit": "µM"}]}
{"smiles": "COc1cc2c(Nc3ccc(Br)c(C(F)(F)F)c3)ncnc2cc1OCCCN1CCCCC1", "note": "[V1802]", "values": [{"measurement": "IC50", "setting": "EGFR kinase", "value": 0.623, "unit": "µM"}, {"measurement": "IC50", "setting": "NCI-H1975 cells [1]; [10]", "value": 7.8, "unit": "µM"}]}
{"smiles": "COc1cc2c(Nc3cc(C(F)(F)F)ccc3Cl)ncnc2cc1OCCCC1CCCCC1", "note": "[V1806]", "values": [{"measurement": "IC50", "setting": "EGFR kinase", "value": "> 10", "unit": "µM"}, {"measurement": "IC50", "setting": "NCI-H1975 cells [1]; [10]", "value": "> 10", "unit": "µM"}]}
{"smiles": "COc1cc2c(Nc3cc(C(F)(F)F)ccc3Br)ncnc2cc1OCCCN1CCCCC1", "note": "[V1801, N-(2-bromo-5-(trifluoromethyl)phenyl)-6-methoxy-7-(3-(piperidin-1-yl)propoxy)quinazolin-4-amine]", "values": [{"measurement": "combination index (CI)", "setting": "NCI-H1975 cells [3]; V1801 (2 µM) combined with bortezomib 10 to 15 nM, CI<1 indicates synergism", "value": "less than 1"}, {"measurement": "clonogenic activity of NCI-H1975 cells", "setting": "NCI-H1975 cells [4]", "value": "drastically inhibited"}, {"measurement": "de-phosphorylation of p-EGFR", "setting": "[5]", "value": "not"}, {"measurement": "induction of apoptosis", "setting": "A549 cells [6]", "value": "induced apoptosis"}, {"measurement": "down-regulation of phosphorylated EGFR (p-EGFR)", "setting": "[7]", "value": "failed to down-regulate"}, {"measurement": "induction of apoptosis", "setting": "NCI-H1975 cells [8]", "value": "induced apoptosis"}, {"measurement": "IC50", "setting": "EGFR kinase", "value": 0.702, "unit": "µM"}, {"measurement": "IC50", "setting": "NCI-H1975 cells [1]; [10]", "value": 3, "unit": "µM"}, {"measurement": "inhibition of proliferation of NCI-H1975 cells", "setting": "NCI-H1975 cells [1]; MTT assay, 48 h, dose-dependent", "value": "significant inhibitory effects"}, {"measurement": "inhibition of proliferation of A549 cells", "setting": "A549 cells [9]", "value": "significant inhibitory effects"}, {"measurement": "tumor growth", "setting": "NCI-H1975 cells [2]", "value": "significantly inhibited tumor growth"}, {"measurement": "Noxa expression in tumor samples", "setting": "NCI-H1975 cells [2]; Western blot, compared with vehicle or gefitinib control mice", "value": "up-regulated"}, {"measurement": "Noxa protein level", "setting": "Noxa", "value": "markedly up-regulated"}]}
{"smiles": "COc1cc2c(Nc3cc(C(F)(F)F)ccc3Cl)ncnc2cc1OCCCN=[N+]=[N-]", "note": "[V1301]", "values": [{"measurement": "IC50", "setting": "EGFR kinase", "value": "> 10", "unit": "µM"}, {"measurement": "IC50", "setting": "NCI-H1975 cells [1]; [10]", "value": "> 10", "unit": "µM"}]}
{"smiles": "COc1cc2c(Nc3cc(C(F)(F)F)cc(C(F)(F)F)c3)ncnc2cc1OCCCN1CCCCC1", "note": "[V1807]", "values": [{"measurement": "IC50", "setting": "EGFR kinase", "value": "> 10", "unit": "µM"}, {"measurement": "IC50", "setting": "NCI-H1975 cells [1]; [10]", "value": 7.5, "unit": "µM"}]}
